Reference: paper PMC12858405, “Ideal efficacy photoswitching for chromocontrol of TRPC4/5 channel functions in live tissues” (Nature Chemical Biology, 2026)

What was measured:
[1] = test system: Th+ neurons of Th-GCaMP6f (WT) mice; experiment: GCaMP6f Ca2+ imaging of Th+ neurons in arcuate nucleus brain slices with 355 nm photoswitching, Th-GCaMP6f (WT) mice; details: for EC50: Mus musculus, Neuron, read-out: EC50 of Z-isomer-induced Ca2+ responses (ΔAUC) in Th+ neurons, WT
Text: slices through the ARC of mice expressing the Ca2+ indicator GCaMP6f in Th+ neurons (Fig. 4),
we investigated (1) whether Ca2+ responses at endogenous TRPC5 expression levels can be
TRPC5 expression using TRPC5-deficient brain slices, (3) whether a dose dependence could be
detected, and (4) whether there are properties in channel activity that can be distinguished between
concentration-response measurements (Fig. 5d).

mouse TRPC4β = molecular target: T1, mouse TRPC4β (Mus musculus, UniProt Q9QUQ5); experiment: FLIPR Ca2+ influx assay (Fluo-4) with 365/447 nm photoswitching, HEK293 stably expressing mouse TRPC4β; format: cell-based; details: for EC50: Z* = mostly-Z PSS under 365 nm LED, Fluo-4-loaded cells, read-out: Agonistic EC50 (365 nm) TRPC4
T1 construct: expressed in transfected cells; host or cells: HEK293 (ATCC CRL 1573), stably transfected, tetracycline-induced
T1 sequence (Q9QUQ5 1-890 isoform Q9QUQ5-2): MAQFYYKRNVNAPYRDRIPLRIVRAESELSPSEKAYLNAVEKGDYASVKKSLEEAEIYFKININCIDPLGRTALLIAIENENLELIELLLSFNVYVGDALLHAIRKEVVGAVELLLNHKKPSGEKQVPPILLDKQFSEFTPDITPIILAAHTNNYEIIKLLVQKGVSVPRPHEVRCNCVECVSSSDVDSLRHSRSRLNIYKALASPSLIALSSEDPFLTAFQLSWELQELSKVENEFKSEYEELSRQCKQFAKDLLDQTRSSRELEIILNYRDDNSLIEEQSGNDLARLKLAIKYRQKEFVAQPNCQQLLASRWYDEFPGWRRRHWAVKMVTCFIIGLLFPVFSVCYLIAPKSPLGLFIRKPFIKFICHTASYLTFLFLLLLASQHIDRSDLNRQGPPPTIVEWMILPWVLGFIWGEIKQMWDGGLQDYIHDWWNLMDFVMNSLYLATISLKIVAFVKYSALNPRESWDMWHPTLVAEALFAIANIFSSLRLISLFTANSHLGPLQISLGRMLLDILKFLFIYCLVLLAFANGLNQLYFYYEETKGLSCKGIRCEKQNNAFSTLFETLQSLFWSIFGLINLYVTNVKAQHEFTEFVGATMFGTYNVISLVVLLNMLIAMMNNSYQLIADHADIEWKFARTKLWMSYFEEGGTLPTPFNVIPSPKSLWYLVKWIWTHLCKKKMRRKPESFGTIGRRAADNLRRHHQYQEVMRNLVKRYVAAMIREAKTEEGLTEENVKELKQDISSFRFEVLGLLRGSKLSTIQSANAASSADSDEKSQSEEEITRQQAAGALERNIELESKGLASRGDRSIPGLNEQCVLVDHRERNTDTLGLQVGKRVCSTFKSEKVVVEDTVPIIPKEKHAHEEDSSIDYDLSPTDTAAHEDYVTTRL
Text: We initially screened for the photoswitchability of activity in cells using a fluorometric imaging plate reader (FLIPR) calcium flux assay, with HEK293 cells stably expressing mouse TRPC4β or mouse TRPC5. Note, however, that the parallel-throughput FLIPR setup is limited to use fixed light-emitting diodes at 365 nm (good Z) and 447 nm (suboptimal E), which, combined with the slowness of the onset and recovery of the fluorescence readout for calcium, causes the FLIPR results to underestimate the reagents’ true speed, degree and completion of TRPC chromocontrol (shown later). […]
3 Cultured Cell Lines (primarily for Fig. 1 and Fig. 2)
3.1 FLIPR Ca2+ influx assay in cell suspensions.
We initially screened for photoswitchability of activity in cells, using a fluorometric imaging plate reader (FLIPR) calcium flux assay, with human embryonic kidney cell line HEK293 stably transfected to express mouse TRPC4β- or TRPC5-CFP fusion protein (HEKmTRPC4β-CFP / HEKmTRPC5-CFP, HEK293 obtained from ATCC CRL 1573). The FLIPR setup provides high-content data, but it is limited to using LED wavelengths of 365 nm (best-Z) and 447 nm (suboptimal-E), while imaging at 470 nm excitation (Fluo-4 AM as Ca2+ indicator; this imaging light counteracts both PSSs). Therefore, we expected the FLIPR results to under-estimate the true chromocontrol power accessible to the reagents.
Cells were grown to 70%-90% confluency in a 75-cm2 culture flask, trypsinised, washed and resuspended in BSA-containing (0.1%) HBS, and supplemented with 3 µM Fluo-4/AM. Stably TRPC-transfected cells were induced with tetracycline 24 h prior to the experiments.42,43 After incubation at 37°C for 30 min [Fluo-4 loading], cells were again washed, resuspended, and dispensed (40 µl/well) into black pigmented, clear-bottom 384-well plates (Greiner µ-clear). To image the Fluo-4 fluorescence during the application and photoswitching of test compounds, these plates were first mounted to a Tecan Fluent 480 (Tecan, Männedorf, Switzerland) liquid handling device, equipped with a 384-tip multichannel arm and a gripper arm. A custom-made plate-imaging device was used for photoswitching during fluorescence imaging, which features LED-based excitation modules (365 nm and 447 nm used here for photoswitching, and 470 nm used here for Fluo-4 readout) projected onto the bottom of the microwell plate, with a cooled scientific complementary metal oxide sensor (sCMOS) camera (Zyla 5.5, Andor, Belfast, UK) equipped with a Nokton 42.5 mm f/0.95 (Voigtlaender, Fürth, Germany) for detection. The LEDs were controlled with an Arduino device and constant current drivers (1 A for 365 and 470 nm LEDs; 3 A for 447 nm LED); detection was under the control of Micromanager 2.0 software. Compounds were serially diluted and applied to the Fluo-4-loaded cell suspensions inside this custom plate-imaging device, then fluorescence intensities (under 470 nm excitation) were continuously recorded during programmed illuminations e.g. with alternating 365 nm and 447 nm phases.
Concentration-response curves for the Z-isomers (channel activation) were then constructed from the maximal signals during 365 nm phases, after a suitable number of "priming" cycles to allow the system to reach stable performance (Supplementary Fig. 13).
All experiments were conducted as a minimum of 3 independent experiments with each experiment averaging data in technical duplicates.
Cellular TRPC4 photoswitching: HEK cell Ca2+ influx photomodulation […]
Supplementary Figure 12. […]

SMILES	Cells with sustained high Ca2+ signal lasting up to 3 min ([1]; 500 nM, 355 nm pulse)	Cells with sustained high Ca2+ signal lasting up to 3 min (count) ([1]; 500 nM, 355 nm pulse)	EC50 [1]	EC50 (mouse TRPC4β)	Effect of E isomer alone on TRPC4 (mouse TRPC4β; 12 pM to […], before 365-nm illumination)	Activity of Z isomer on TRPC4 (mouse TRPC4β; into the micromolar range, 365 nm)
Cn1c(=O)n(CCCO)c(=O)c2c1nc(Oc1ccc(N=Nc3ccccc3)c(Cl)c1)n2Cc1ccc(Cl)cc1 [AzHC]	42%	14 of 33	0.13 ± 0.1 µM	–	–	–
Cn1c(=O)n(CCCO)c(=O)c2c1nc(Oc1ccc(N=Nc3ccccc3)c(OC(F)(F)F)c1)n2Cc1ccc(Cl)cc1 [AzPico]	–	13 out of 31	–	0.003 µM	–	–
Cn1c(=O)n(CCCO)c(=O)c2c1nc(Oc1ccc(/N=N/c3ccccc3)c(OC(F)(F)F)c1)n2Cc1ccc(Cl)cc1 [E-AzPico]	–	–	–	–	no effect	–
Cn1c(=O)n(CCCO)c(=O)c2c1nc(Oc1ccc(/N=N\c3ccccc3)c(Cl)c1)n2Cc1ccc(Cl)cc1 [Z*-AzHC]	–	–	0.13 ± 0.1 µM	> 1 µM	–	completely inactive
